What all share (type): cell-based
Experiment [1] deals with PANC-1 cells. The experiment can be described thus: MTT cell activity assay (inhibitory activity against PANC-1 cells). The procedure: A total of 3000 PANC-1 cells were resuspended in 200 μL of culture medium and seeded into 96-well plates. After 24 h, the cells were treated with the compound and incubated for an additional 72 h. Following the incubation, 20 μL of 5 mg/mL MTT solution (Solarbio, China) was added to each well in the dark, and the cells were incubated for another 4 h. After incubation, the culture medium was discarded, and the wells were washed with PBS to remove any residual medium. Then, 200 μL of DMSO was added to each well to fully dissolve the formazan crystals, and the solution was mixed thoroughly. The absorbance was measured at 492 nm/570 nm, and the data were analyzed using GraphPad Prism.
Background: Tetrazolium assays rely on reduction of a dye to a coloured formazan, in cell work by metabolically active cells.

For experiment [2], the system named is PANC-1 and MIA PaCa-2 pancreatic cancer cells. The experiment can be described thus: Transwell invasion assay. To be noted: 24 h, concentration-dependent, vs control. From the text: (§1) Figure S225. Compound 1a inhibited the migration, invasion and proliferation of pancreatic cancer cells. (A) The results of wound healing assays to investigate the effects of 1a on the migration ability against PANC-1 and MIA PaCa-2 pancreatic cancer cells. (B) The results of transwell assays to investigate the effects of 1a on the invasion ability. (C) Effects of 1a on the clonogenic ability. (D) EdU assays of 1a. (E) Western blot assays of 1a on biomarkers. Data are presented as mean ± SD, n […]
(§2) Approximately 50% of pancreatic cancer patients show distant metastases at the time […]
(§3) disease. To evaluate the inhibitory effects of majusculamide D (1a) on the migratory capabilities of pancreatic cancer cells (PANC-1 and MIA PaCa-2), wound healing assays […]
(§4) were performed (Figure S1A). […]
(§5) concentration-dependent manner. […]
(§6) inhibited the migration of these pancreatic cancer cells. Further validation with transwell […]
(§7) concentration-dependent manner compared to the control group (Figure S1B). Since cell migration and invasion are correlated with cancer metastasis, compound 1a may delay the progression of tumors’ local spread and distant metastasis by inhibiting the migration and invasion ability of pancreatic cancer cells. […]
(§8) Images were taken at 0 hour and 24 hours after treatment to record and analyzed by measuring the area of the wound at each time point using ImageJ. […]

The subject of experiment [3] is pancreatic cancer cells. The experiment can be described thus: Clone formation assay. To be noted: 48 h treatment then 10 days culture, concentration-dependent, vs control. From the text: dependent manner (Figure S1C). […]
growth and survival of pancreatic cancer cells. […]
Snail and TCF8/ZEB1 both […]
are transcription factors that can inhibit the expression of E-cadherin and promote the EMT process. Vimentin is a marker protein of mesenchymal cells, and its expression increases during EMT, further contribute to the process of metastasis by supporting the structural changes needed for cell migration and invasion.
We examined the effects of compound 1a on above key proteins involved in tumor progression pathways employing Western blot analysis in PANC-1 cells and MIA PaCa-2 […]
1a might inhibit cancer cell invasion and migration by enhancing cell-cell adhesion and barrier function. Conversely, the expression levels of β-catenin, Fibronectin, Snail, […]
Cells were resuspended at a concentration of 300 cells/mL, and 2 mL of the suspension was added to each well of a 6-well plate. After the cells adhered to the plate, the compound was added, and the cells were incubated for 48 hours, followed by replacement with fresh medium. The cells were then cultured for an additional 10 days. Subsequently, the cells were fixed with methanol and stained with crystal violet. The colonies were imaged under a microscope and quantified using ImageJ.
The BeyoClick™ EdU-488 Cell Proliferatio n Assay Kit (Beyotime Biotechnology, China) was used according to the manufacturer's instructions. […]

The test system of experiment [4] is PANC-1 and MIA PaCa-2 pancreatic cancer cells. Description: Wound healing assay. To be noted: PANC-1 and MIA PaCa-2, 24 h, concentration-dependent, vs control.
From the text: as §1, §2, §3, §4, §5, §6, §7, §8

Where two headings read alike, the source gives them in different places.

In the case of `CCCCC(C)CC(C)C(=O)N(C)C(Cc1ccc(OC)cc1)C(=O)NC(C(=O)N(C)C(C(=O)N1CC(O)CC1C(=O)N1C(=O)C=CC1C)C(C)C)C(C)OC(C)=O` (centres unmarked) [Compound 1a, Majusculamide D], the IC50 in experiment [1] (Homo sapiens, PANC-1, 72 h, read-out: IC50 (nM), inhibitory activity against PANC-1 cells (Table 2), PANC-1 cells, 72 h incubation, mean ± SD, n = 3, Table 2 series) was 1.99 ± 0.68 nM; in experiment [1] (read-out: IC50 (nM), inhibitory activity against PANC-1 cells (Table 1), PANC-1 cells, 72 h incubation, mean ± SD, n = 3) it was 1.88 ± 0.82 nM. Moreover, the “cell invasion (transwell)” value in experiment [2] is given as “significantly decreased cell invasion”. In addition, the colony formation entry in experiment [3] is recorded as “remarkably reduced colony formation”. The “scratch wound healing rate (migration)” value in experiment [4] is reported as “significantly reduced the scratch wound healing rate”.

For orientation: IC50 means the concentration that gives 50% inhibition.

For the origin of these results see article PMC11679793, “Structure-Activity Relationship Study of Majusculamide D: Overcoming Metabolic Instability and Severe Toxicity with a Fluoro Analogue” (Marine Drugs, 2024).
